Source: article PMC10064330, “Reversible Dual-Covalent Molecular Locking of the 14-3-3/ERRγ Protein–Protein Interaction as a Molecular Glue Drug Discovery Approach” (Journal of the American Chemical Society, 2023)

Target: T1, 14-3-3γ/ERRγ complex (Homo sapiens, UniProt P61981+P62508)
T1 construct: made in house; host or cells: E. coli NiCo21 (DE3)
Test: Time-dependent fluorescence anisotropy (TD-FA) of ternary complex formation
Format: binding
Description: Time-dependent fluorescence anisotropy (TD-FA) measurements provided insights in the kinetics of ternary complex (14-3-3/ERRγ/lock) formation (Figures S2 and S3). All fragments reached saturation by ∼12 h. […] Carboxamides 4–6 and 8–10 reached saturation within 5 h.
TD-FA experiments were also performed at different pH values to study ternary complex (14-3-3γ/ERRγ/compound) formation and the importance of the imine bond in the molecular lock (Figure 3b,c and Figures S14–S16). […] Similarly, the avidity of the 14-3-3/ERRγ/1 complex at equilibrium was not affected by pH (Figure 3b). In contrast, 5 and 10 elicited an inverse relationship between pH and KD^app (Figure 3c and Figure S14), connected to impaired imine bond formation at low pH.
In contrast, the formation of the ternary complexes of 14-3-3γ/ERRγ/compound with 1, 5, and 10 was time-dependent and pH-responsive (Figure 3b,c and Figures S15 and S16). […] At pH 6.5, the kinetics of disulfide bond formation was 50% slower. For instance, at pH 6.5, the maximum effect of 1 was reached after a 4.2 h incubation, compared to 1.7–0.8 h for pH 7.0–8.0 (Figure S16g). […] Effective disulfide formation thus appeared to aid in the imine bond formation of the dual-covalent locks. Combining the two reactive handles increased the effective molar concentration of the lock within the binding pocket, illustrating the need for dual reactivity and leading to enhanced 14-3-3/ERRγ avidity.
Figure S2. Time resolved fluorescence anisotropy screen. Time dependent results of 14-3-3γ titration to 10 nM fluorescein-labelled ERRγ peptide in presence of 100 µM compound 1-10 (or DMSO as negative control).
Fluorescence anisotropy was measured every 15 minutes for the first 2 hours after which it was measured every hour for 15 hours. The plate was measured one more time after 24 hours incubation.
(1 picture or pasted object on this page, not shown here)
Figure S3. Time-dependent FA-based apparent Kd analysis. Determined apparent K from fluorescence […]
anisotropy binding curves (see figure S1) and plotted over time (top row) for all compounds in this study to show a time dependent decrease in KD (increase in affinity) between 14-3-3γ and ERRγ as induced by the compounds.
Bottom graphs show the normalized version of the top graphs where the KD at t=0h was set to no effect (0%) and […]
Figure S16. Time- and pH dependent FA-based apparent K analysis. (a-c) Determined apparent K from […]
fluorescence anisotropy binding curves (see figure S15) and plotted over time for compounds 1, 5 and 10. Results show a time dependent decrease in KD (increase in affinity) between 14-3-3γ and ERRγ as induced by the compounds over time. […]
temperatures are based on three independent experiments from which the average and standard deviations were determined using excel. […]

T1 sequence (P61981 whole entry, other chains not shown): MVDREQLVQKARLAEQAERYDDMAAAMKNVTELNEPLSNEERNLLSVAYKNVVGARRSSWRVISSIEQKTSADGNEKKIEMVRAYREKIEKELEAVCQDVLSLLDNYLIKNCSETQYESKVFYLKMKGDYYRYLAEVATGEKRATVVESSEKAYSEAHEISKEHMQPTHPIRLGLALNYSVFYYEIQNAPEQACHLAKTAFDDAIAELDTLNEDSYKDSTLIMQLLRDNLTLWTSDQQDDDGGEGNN

Row | Structure (SMILES) | binding kinetics (100 μM compound, TD-FA) | incubation time to reach maximum effect (pH 6.5, 100 μM compound) [h] | time to saturation of ternary complex formation (100 μM compound, TD-FA) [h]
1 | CN(C)CCSSCCN(C)C(=O)c1cccc(F)c1 [compound 1, reference compound] | significantly slower binding kinetics than molecular locks 4–10 | 4.2 | 
2 | CN(C)CCSSCCN(C)C(=O)c1ccc(C=O)c(F)c1 [compound 5] | fastest reaction kinetics |  | 2
